Here are results for three molecules from ChEMBL document CHEMBL1151200, “Comparison of fascaplysin and related alkaloids: a study of structures, cytotoxicities, and sources” (J Nat Prod, 2004).

Data set [1] has as its system L1210. In words: Cytotoxicity against mouse L1210 cells at 64 ug/disk by disk diffusion soft agar colony formation assay. It is filed as functional. On the technique in general: A growth-free zone around the sample is the usual read-out of agar diffusion tests.
In data set [2] the test system is MC-38. The data set can be described thus: Cytotoxicity against mouse C38 cells at 64 ug/disk by disk diffusion soft agar colony formation assay. In kind it is functional.
Data set [3] in a line: Cytotoxicity against human H116 cells at 64 ug/disk by disk diffusion soft agar colony formation assay. It is filed as functional.
Data set [4] is described as follows: Cytotoxicity against human H125 cells at 64 ug/disk by disk diffusion soft agar colony formation assay. It is filed as functional.
Data set [5] has as its system A549. In words: Antitumor activity against human A549/ATCC cells. In kind it is functional, cell-based.
Data set [6] concerns EKVX. In words: Antitumor activity against human EKVX cells. It is filed as functional, cell-based.
The subject of data set [7] is HOP-62. In words: Antitumor activity against human HOP62 cells. It is filed as functional, cell-based.
Data set [8] concerns HOP-92. The data set can be described thus: Antitumor activity against human HOP92 cells. In kind it is functional, cell-based.
The subject of data set [9] is NCI-H226. The data set can be described thus: Antitumor activity against human NCI-H226 cells. It is filed as functional, cell-based.
For data set [10], the system named is NCI-H23. The data set can be described thus: Antitumor activity against human NCI-H23 cells. In kind it is functional, cell-based.
Data set [11] deals with NCI-H322M. In words: Antitumor activity against human NCI-H322M cells. It is filed as functional, cell-based.
In data set [12] the test system is NCI-H460. In words: Antitumor activity against human NCI-H460 cells. In kind it is functional, cell-based.
Data set [13] concerns NCI-H522. In words: Antitumor activity against human NCI-H522 cells. It is filed as functional, cell-based.
In data set [14] the test system is COLO 205. In words: Antitumor activity against human COLO205 cells. In kind it is functional, cell-based.
In data set [15] the test system is HCC 2998. In words: Antitumor activity against human HCC2998 cells. It is filed as functional, cell-based.
The subject of data set [16] is HCT-116. In words: Antitumor activity against human HCT116 cells. It is filed as functional, cell-based.
Data set [17] has as its system HCT-15. In words: Antitumor activity against human HCT15 cells. It is filed as functional, cell-based.
Data set [18] deals with KM12. In words: Antitumor activity against human KM12 cells. In kind it is functional, cell-based.
The test system of data set [19] is SW-620. In words: Antitumor activity against human SW620 cells. In kind it is functional, cell-based.
The subject of data set [20] is SF-268. The data set can be described thus: Antitumor activity against human SF268 cells. In kind it is functional, cell-based.
Data set [21] deals with SF-295. The data set can be described thus: Antitumor activity against human SF295 cells. In kind it is functional, cell-based.
Data set [22] concerns SNB-19. In words: Antitumor activity against human SNB19 cells. It is filed as functional, cell-based.
Data set [23] deals with SNB-75. In words: Antitumor activity against human SNB75 cells. In kind it is functional, cell-based.
Data set [24] relates to U-251. The data set can be described thus: Antitumor activity against human U251 cells. It is filed as functional, cell-based.
In data set [25] the test system is LOX IMVI. The data set can be described thus: Antitumor activity against human LOXIMVI cells. In kind it is functional, cell-based.
Data set [26] deals with Malme-3M. The data set can be described thus: Antitumor activity against human MALME-3M cells. In kind it is functional, cell-based.
The subject of data set [27] is M14. In words: Antitumor activity against human M14 cells. In kind it is functional, cell-based.
In data set [28] the test system is SK-MEL-28. In words: Antitumor activity against human SK-MEL-28 cells. In kind it is functional, cell-based.
Data set [29] deals with SK-MEL-5. In words: Antitumor activity against human SK-MEL-5 cells. In kind it is functional, cell-based.
The subject of data set [30] is UACC-257. The data set can be described thus: Antitumor activity against human UACC257 cells. In kind it is functional, cell-based.
The test system of data set [31] is UACC-62. In words: Antitumor activity against human UACC62 cells. In kind it is functional, cell-based.
The subject of data set [32] is IGROV-1. In words: Antitumor activity against human IGROV1 cells. In kind it is functional, cell-based.
In data set [33] the test system is OVCAR-3. The data set can be described thus: Antitumor activity against human OVCAR-3 cells. It is filed as functional, cell-based.
Data set [34] has as its system OVCAR-4. In words: Antitumor activity against human OVCAR4 cells. It is filed as functional, cell-based.
For data set [35], the system named is OVCAR-5. The data set can be described thus: Antitumor activity against human OVCAR5 cells. It is filed as functional, cell-based.
Data set [36] has as its system OVCAR-8. The data set can be described thus: Antitumor activity against human OVCAR8 cells. It is filed as functional, cell-based.
Data set [37] relates to SK-OV-3. The data set can be described thus: Antitumor activity against human SKOV3 cells. In kind it is functional, cell-based.
A short description of data set [38]: Antitumor activity against human 786-O cells. It is filed as functional, cell-based. The following applies: 786-0.
Data set [39] deals with A498. The data set can be described thus: Antitumor activity against human A498 cells. In kind it is functional, cell-based.
In data set [40] the test system is ACHN. In words: Antitumor activity against human ACHN cells. It is filed as functional, cell-based.
The subject of data set [41] is CAKI-1. The data set can be described thus: Antitumor activity against human Caki1 cells. It is filed as functional, cell-based.
Data set [42] deals with RXF 393. In words: Antitumor activity against human RXF393 cells. In kind it is functional, cell-based.
For data set [43], the system named is SN12C. The data set can be described thus: Antitumor activity against human SN12C cells. It is filed as functional, cell-based.
Data set [44] deals with TK-10. In words: Antitumor activity against human TK10 cells. It is filed as functional, cell-based.
The subject of data set [45] is UO-31. In words: Antitumor activity against human UO31 cells. It is filed as functional, cell-based.
Data set [46] has as its system PC-3. In words: Antitumor activity against human PC3 cells. It is filed as functional, cell-based.
In data set [47] the test system is MCF7. In words: Antitumor activity against human MCF7 cells. In kind it is functional, cell-based.
The subject of data set [48] is MCF7. The data set can be described thus: Antitumor activity against […] human MCF7 cells. It is filed as functional, cell-based.
Data set [49] can be described thus: Antitumor activity against human Hs 578T cells. It is filed as functional, cell-based.
For data set [50], the system named is MDA-MB-435. In words: Antitumor activity against human MDA-MB-435 cells. In kind it is functional, cell-based.
Data set [51] has as its system BT-549. In words: Antitumor activity against human BT549 cells. It is filed as functional, cell-based.
Data set [52] concerns T47D. The data set can be described thus: Antitumor activity against human T47D cells. It is filed as functional, cell-based.
Data set [53] has as its system L1210. The data set can be described thus: Cytotoxicity against mouse L1210 cells 6.4 ug/disk by disk diffusion soft agar colony formation assay. It is filed as functional.
Data set [54] concerns MC-38. The data set can be described thus: Cytotoxicity against mouse C38 cells at 6.4 ug/disk by disk diffusion soft agar colony formation assay. It is filed as functional.
The nature of data set [55]: Cytotoxicity against mouse CFU-GM cells at 6.4 ug/disk by disk diffusion soft agar colony formation assay. It is filed as cell-based.
The nature of data set [56]: Cytotoxicity against human H116 cells at 6.4 ug/disk by disk diffusion soft agar colony formation assay. It is filed as functional.
A short description of data set [57]: Cytotoxicity against human H125 cells at 6.4 ug/disk by disk diffusion soft agar colony formation assay. In kind it is functional.
Data set [58] deals with CCRF-CEM. In words: Cytotoxicity against human CEM cells at 6.4 ug/disk by disk diffusion soft agar colony formation assay. It is filed as functional.
The subject of data set [59] is HL-60(TB). In words: Antitumor activity against human HL-60(TB) cells. It is filed as functional, cell-based.
For data set [60], the system named is K562. The data set can be described thus: Antitumor activity against human K562 cells. It is filed as functional, cell-based.
Data set [61] deals with MOLT-4. The data set can be described thus: Antitumor activity against human MOLT4 cells. It is filed as functional, cell-based.
The test system of data set [62] is RPMI-8226. The data set can be described thus: Antitumor activity against human RPMI8226 cells. In kind it is functional, cell-based.
In data set [63] the test system is SR. In words: Antitumor activity against human SR cells. In kind it is functional, cell-based.
The test system of data set [64] is L1210. The data set can be described thus: Cytotoxicity against mouse L1210 cells at 84 ug/disk by disk diffusion soft agar colony formation assay. In kind it is functional.
The test system of data set [65] is MC-38. In words: Cytotoxicity against mouse C38 cells at 84 ug/disk by disk diffusion soft agar colony formation assay. It is filed as functional.
The nature of data set [66]: Cytotoxicity against mouse CFU-GM cells at 84 ug/disk by disk diffusion soft agar colony formation assay. It is filed as cell-based.
Data set [67] in a line: Cytotoxicity against human H116 cells at 84 ug/disk by disk diffusion soft agar colony formation assay. In kind it is functional.
Data set [68] is described as follows: Cytotoxicity against human H125 cells at 84 ug/disk by disk diffusion soft agar colony formation assay. It is filed as functional.
Data set [69] relates to CCRF-CEM. The data set can be described thus: Cytotoxicity against human CEM cells at 84 ug/disk by disk diffusion soft agar colony formation assay. It is filed as functional.

As for `O=C(O)c1ccc(Br)cc1-[n+]1ccc2c(c1)[nH]c1ccccc12.[Cl-]`, the Activity in data set [1] stood at 100 Zone units; in [2] it was 250 Zone units; in [3] it was 0 Zone units; in [4] it was 0 Zone units.

In the case of `O=C1c2ccc(Br)cc2-[n+]2ccc3c([nH]c4ccccc43)c21.[Cl-]`, the IC50 in [5] is greater than 10 µM; in data set [6], 3.6 µM; in [7], greater than 10 µM; in [8] it was greater than 10 µM; in data set [9], 5.3 µM; in data set [10] it was 0.89 µM. Further, the IC50 in data set [11] is 0.65 µM; in [12], greater than 10 µM; in data set [13] it was 0.68 µM; in data set [14] it was greater than 10 µM; in data set [15] it was 0.91 µM; in data set [16], 0.76 µM. In addition, the IC50 in data set [17] is greater than 10 µM; in data set [18] it was 8.5 µM; in data set [19], greater than 10 µM; in data set [20] it was 5.6 µM; in data set [21] it was 0.59 µM; in data set [22], 0.66 µM. In addition, the IC50 is 3.8 µM in data set [23]; greater than 10 µM in data set [24]; greater than 10 µM in [25]; 0.49 µM in data set [26]; 0.59 µM in data set [27]; 1.3 µM in data set [28]. The IC50 in [29] is greater than 10 µM; in [30], 5.3 µM; in [31], 0.63 µM; in data set [32], 0.74 µM; in [33], 4.4 µM; in data set [34] it was 0.59 µM. Besides, the IC50 is greater than 10 µM in data set [35]; 0.6 µM in data set [36]; greater than 10 µM in [37]; 7.1 µM in data set [38]; greater than 10 µM in data set [39]; greater than 10 µM in data set [40]. In addition, the IC50 is 1.6 µM in data set [41]; 3.1 µM in [42]; 2.9 µM in data set [43]; greater than 10 µM in data set [44]; 0.53 µM in data set [45]; greater than 10 µM in data set [46]. Further, the half-maximal inhibitory concentration (IC50) in data set [47] was 0.93 µM; in data set [48] it was 5.3 µM; in [49], 0.59 µM; in data set [50], greater than 10 µM; in data set [51], 0.59 µM; in [52], greater than 10 µM. The concentration for half-maximal inhibition (IC50) in data set [59], in [60], in data set [61], in [62] and in data set [63] was greater than 10 µM in each case. The Activity in data set [53] is recorded as 500 Zone units; in data set [54], 400 Zone units; in data set [55], 400 Zone units; in [56], 600 Zone units; in data set [57], 550 Zone units; in data set [58], 400 Zone units.

`Oc1ccc(Br)cc1-[n+]1ccc2c(c1)[nH]c1ccccc12.[Cl-]`: the Activity is 450 Zone units in data set [64]; 400 Zone units in data set [65]; 450 Zone units in data set [66]; 500 Zone units in [67]; 550 Zone units in data set [68]; 750 Zone units in data set [69].

The term IC50 denotes the midpoint of a concentration-inhibition curve. Low readings indicate greater potency in that assay, high ones weaker potency in that assay.
